Activity calls are given as the source filed them. How the calls were made is not given here.
System: CCRIS mutagenicity, Ames/micronucleus/aberration tests
Experiment: CCRIS mutagenicity studies

Measured: mutagenic call

CC(=O)OCC(=O)[C@@]1(OC(C)=O)CC[C@H]2[C@@H]3C[C@@H](F)C4=CC(=O)C(Br)=C[C@]4(C)[C@@]3(F)[C@@H](O)C[C@@]21C
inactive: Test System: AMES SALMONELLA TYPHIMURIUM, Strain/Indicator: TA98, Metabolic Activation: NONE inactive; negative | Test System: AMES SALMONELLA TYPHIMURIUM, Strain/Indicator: TA98, Metabolic Activation: S-9 inactive; negative | Test System: AMES SALMONELLA TYPHIMURIUM, Strain/Indicator: TA100, Metabolic Activation: NONE inactive; negative | Test System: AMES SALMONELLA TYPHIMURIUM, Strain/Indicator: TA100, Metabolic Activation: S-9 inactive; negative | Test System: AMES SALMONELLA TYPHIMURIUM, Strain/Indicator: TA1535, Metabolic Activation: NONE inactive; negative | Test System: AMES SALMONELLA TYPHIMURIUM, Strain/Indicator: TA1535, Metabolic Activation: S-9 inactive; negative | Test System: AMES SALMONELLA TYPHIMURIUM, Strain/Indicator: TA1537, Metabolic Activation: NONE inactive; negative | Test System: AMES SALMONELLA TYPHIMURIUM, Strain/Indicator: TA1537, Metabolic Activation: S-9 inactive; negative | Test System: AMES SALMONELLA TYPHIMURIUM, Strain/Indicator: TA1538, Metabolic Activation: NONE inactive; negative | Test System: E. COLI, Strain/Indicator: WP2, Metabolic Activation: NONE inactive; negative | Test System: E. COLI, Strain/Indicator: WP2, Metabolic Activation: S-9 inactive; negative | Test System: E. COLI, Strain/Indicator: WP2 UVRA, Metabolic Activation: NONE inactive; negative | Test System: E. COLI, Strain/Indicator: WP2 UVRA, Metabolic Activation: S-9 inactive; negative

From PubChem BioAssay AID1259407 (Chemical Carcinogenesis Research Information System (CCRIS), 2018)
